Data on eight compounds can be found in patent US5102667A, “Isoindolone derivatives, their preparation and the pharmaceutical compositions containing them” (Rhone-Poulenc Sante, priority 1989, dated 1992).

Read-outs that look alike come from different tables or passages of the source.

Assay [1] in a line: analgesic activity (technique of E. Siegmund et al.). Type of assay: in vivo. An excerpt:
Exp. Biol. Med., 95, 729 (1957).

The subject of assay [2] is substance P receptors of human cells: lymphoblasts of line IM 9. Kind of assay: binding of substance P-H^3 on washed homogenates of IM-9 cells. As to conditions: substance P-H^3 1 nM. As for the experimental part:
Substance P plays a role in the modulation of immune processes (J. P. McGillis et al., Fed. Proc., 46 (1), 196-199 (1987)). Substance P binds to receptors of human cells in cultures: the lymphoblasts of line IM 9 [D. G. Payan et al., J. of Immunology, 133 (6), 3260-5 (1984)]. The products according to the invention displace substance P at these locations.
Binding substance P--H^3 (concentration 1 nM)
on washed homogenates of IM-9 cells after freezing

For assay [3], the system named is septide. Description: antagonism of behavioural effects induced by septide administered intrathecally (technique of R. E. Rodriguez et al.). Type of assay: in vivo. As to conditions: rats.
A further assay has as its system substance P. Kind of assay: inhibition of the increase in capillary permeability caused by substance P (technique of A. Saria et al.). Type of assay: in vivo. The settings on record: Rattus norvegicus, iv, rats. An excerpt: The study of several isoindolone derivatives of general formula (I) using the technique of A. Saria et al., Arch.
Assay [4] deals with septide. Kind of assay: antagonism of hypotension induced by septide / substance P (technique of C. A. Maggi et al.). Type of assay: in vivo. The settings on record: 0.2 mg/kg i.v./min, for 5 min; rats; i.v. injection of 250 μg of septide. As for the experimental part:
The injection of substance P into the animal causes hypotension. The products studied using the technique of C. A. Maggi et al., J. Auton. Pharmac., 7, 11-32 (1987) show an antagonist effect in rats towards this hypotension. In particular, the product of Example 60 administered in a dose of 0.2 mg/kg i.v./min, for 5 min, causes an approximately 50% antagonism of the hypotension induced by an i.v. injection of 250 μg of septide.

For `N=C(Cc1ccccc1)N1C[C@@H]2C(=O)CCC(c3ccccc3)(c3ccccc3)[C@@H]2C1` (racemic) [Example 4, (3aRS,7aRS)-2-(α-iminophenethyl)-7,7-diphenyl-4-perhydroisoindolone], the ED50 in assay [1] (po, read-out: ED50) is 42 mg/kg.

For the compound `O=C1CCC(c2ccccc2)(c2ccccc2)[C@@H]2CN(C(Cc3ccccc3)=NCc3ccccc3)C[C@H]12` (racemic) [Example 13, (3aRS,7aRS)-2-(α-benzyliminophenethyl)-7,7-diphenyl-4-perhydroisoindolone], the ED50 in assay [1] (po, read-out: ED50) was determined as 19 mg/kg.

Consider `COc1ccccc1CC(=N)N1C[C@@H]2C(=O)CCC(c3ccccc3)(c3ccccc3)[C@@H]2C1` (racemic) [Example 48, (3aRS,7aRS)-2-[1-imino-2-(2-methoxyphenyl)ethyl]-7,7-diphenyl-4-perhydroisoindolone], for which the ED50 in assay [1] (p.o.) amounted to 4 mg/kg p.o.

For the compound `O=C1CCC(c2ccccc2)(c2ccccc2)[C@@H]2CN(C(Cc3ccccc3)=NCc3cccs3)C[C@H]12` (relative stereo) [Example 27], the ED50 in assay [1] (po, read-out: ED50) was 29 mg/kg.

Regarding `COc1ccccc1CC(=O)N1C[C@@H]2C(=O)CCC(c3ccccc3)(c3ccccc3)[C@@H]2C1` [Example 49, (3aR,7aR)-(-)-7,7-diphenyl-2-[(2-methoxyphenyl)acetyl]-4-perhydroisoindolone], the “Binding substance P-H^3 (concentration 1 nM) on washed homogenates of IM-9 cells after freezing” value in assay [2] amounted to 680.

Take `COc1ccccc1CC(=N)N1C[C@@H]2C(=O)CCC(c3ccccc3)(c3ccccc3)[C@@H]2C1` [Example 50, (3aR,7aR)-2-[1-imino-2-(2-methoxyphenyl)ethyl]-7,7-diphenyl-4-perhydroisoindolone]: the ED50 in assay [1] (p.o.) is 0.3 mg/kg p.o; in the assay on substance P it was ~0.05 mg/kg. Further, the “% inhibition of the behaviour at a dose of 10 mg/kg sc” value in the assay on septide [3] came out at 50%.

With `CN(C)c1ccccc1CC(=O)N1C[C@@H]2C(=O)CCC(c3ccccc3)(c3ccccc3)[C@@H]2C1` [Example 60, (3aR,7aR)-7,7-diphenyl-2-[2-(2-dimethylaminophenyl)acetyl]-4-perhydroisoindolone], the “antagonism of the hypotension induced by septide” value in the assay with septide [4] is listed as “approximately 50%”. For the same compound, the ED50 in assay [1] (po, read-out: ED50) was 38 mg/kg; in the assay on substance P, ~1 mg/kg. Moreover, the “% inhibition of the behaviour at a dose of 10 mg/kg sc” value with septide [3] stood at 80%.

For `COc1ccccc1[C@H](C)C(=O)N1C[C@@H]2C(=O)CCC(c3ccccc3)(c3ccccc3)[C@@H]2C1` [Example 76, (3aR,7aR)-7,7-diphenyl-2-[(S)-2-(2-methoxyphenyl)propionyl]-4-perhydroisoindolone], the “Binding substance P-H^3 (concentration 1 nM) on washed homogenates of IM-9 cells after freezing” value in assay [2] is 315.
